Measured values: patent publication US9381200B2, “Nitrogen containing compounds” (WOCKHARDT LIMITED, priority 2011, dated 2016)
In brackets after ≈: the same amount, converted by molar mass. Like-named read-outs stand apart in the source and are kept apart here.

Columns and labels:
Format in all cases: cell-based
E. coli M 50 = experiment: Antibacterial activity (MIC), agar dilution per CLSI
Protocol: (§1) The biological activity of representative compounds according to the invention against various bacterial strains was investigated. In a typical study, overnight grown bacterial cultures were diluted appropriately and inoculated on the agar media containing doubling dilutions of the test compounds. Observation for growth or no growth was performed after 16-20 hours of incubation at 35±2° C. in ambient air. The overall procedure was performed as per Clinical and Laboratory Standards Institute (CLSI) recommendations (Clinical and Laboratory Standards Institute (CLSI), Performance Standards for Antimicrobial Susceptibility Testing, 20th Informational Supplement, M 100-S20, Volume 30, No. 1, 2010).
(§2) The activities are expressed as MICs (mcg/ml).

E. coli NCTC 13351 = experiment: as above; settings: 16-20 hours, 35±2° C.
Protocol: as §1
(§3) Table 3 details antibacterial activity of representative compounds according to the invention against various E. coli strains (NCTC 13351, M 50 and 7 MP) expressing ESBL (Extended Spectrum Beta Lactamases).

E. coli 7 MP = experiment: as above; settings: Table 3, E. coli 7 MP expressing ESBL
Protocol: as §1, §3

P. aeruginosa ATCC 27853 = experiment: Antibacterial activity (MIC) against MDR Gram negative strains; settings: Pseudomonas aeruginosa, ATCC27853
Protocol: as §1, §2

P. aeruginosa Ps 21 = experiment: as above; settings: Pseudomonas aeruginosa, PS21
Protocol: as §1, §2

E. Coli B 89 = experiment: as above; settings: Escherichia coli
Protocol: as §1, §2

K penumoniae H 521 = experiment: as above
Protocol: as §1, §2

E. Coli H 484 = experiment: as above; settings: Escherichia coli
Protocol: as §1, §2

K penumoniae H 523 = experiment: as above
Protocol: as §1, §2

P. aeruginosa Ps 32 = experiment: as above; settings: Pseudomonas aeruginosa, PS32
Protocol: as §1, §2

E. Coli W 13353 = experiment: as above; settings: Escherichia coli
Protocol: as §1, §2

E. Coli W 13351 = experiment: as above; settings: Escherichia coli
Protocol: as §1, §2

E. Coli W 13352 = experiment: as above; settings: Escherichia coli
Protocol: as §1, §2

E. Coli M 3 = experiment: as above; settings: Escherichia coli
Protocol: as §1, §2

K. penumoniae S 48 = experiment: as above
Protocol: as §1, §2

E. Coli M 44 = experiment: as above; settings: Escherichia coli
Protocol: as §1, §2

K penumoniae H 525 = experiment: as above
Protocol: as §1, §2

[1] = Escherichia coli, M50, Table 3, E. coli M 50 expressing ESBL, agar dilution, read-out: MIC
[2] = Escherichia coli, M50, Table 4, E. Coli M 50, Class C ESBL, MDR, read-out: MIC
[3] = Escherichia coli, NCTC13351, Table 3, E. coli NCTC 13351 expressing ESBL, read-out: MIC
[4] = Escherichia coli, read-out: MIC
[5] = Table 5, P. aeruginosa ATCC 27853, read-out: MIC
[6] = Table 5, P. aeruginosa Ps 21, read-out: MIC
[7] = Table 4, E. Coli B 89, Class C ESBL, MDR, read-out: MIC
[8] = Table 4, K penumoniae H 521, KPC ESBL, MDR, read-out: MIC
[9] = Table 4, E. Coli H 484, Class C ESBL, MDR, read-out: MIC
[10] = Table 4, K penumoniae H 523, KPC ESBL, MDR, read-out: MIC
[11] = Table 5, P. aeruginosa Ps 32, read-out: MIC
[12] = Table 4, E. Coli W 13353, Class A ESBL, MDR, read-out: MIC
[13] = Table 4, E. Coli W 13351, Class A ESBL, MDR, read-out: MIC
[14] = Table 4, E. Coli W 13352, Class A ESBL, MDR, read-out: MIC
[15] = Table 5, E. Coli M 3, Class B ESBL, MDR, read-out: MIC
[16] = Table 5, K. penumoniae S 48, Class B ESBL, MDR, read-out: MIC
[17] = Table 5, E. Coli M 44, Class B ESBL, MDR, read-out: MIC
[18] = Table 4, K penumoniae H 525, KPC ESBL, MDR, read-out: MIC
[19] = Table 3, E. coli M 50 expressing ESBL, agar dilution
[20] = Table 3, E. coli NCTC 13351 expressing ESBL

SMILES	MIC (E. coli M 50; [1]) [µg/mL]	MIC (E. coli M 50; [2]) [µg/mL]	MIC (E. coli NCTC 13351; [3]) [µg/mL]	MIC (E. coli 7 MP; [4]) [µg/mL]	MIC (P. aeruginosa ATCC 27853; [5]) [µg/mL]	MIC (P. aeruginosa Ps 21; [6]) [µg/mL]	MIC (E. Coli B 89; [7]) [µg/mL]	MIC (K penumoniae H 521; [8]) [µg/mL]	MIC (E. Coli H 484; [9]) [µg/mL]	MIC (K penumoniae H 523; [10]) [µg/mL]	MIC (P. aeruginosa Ps 32; [11]) [µg/mL]	MIC (E. Coli W 13353; [12]) [µg/mL]	MIC (E. Coli W 13351; [13]) [µg/mL]	MIC (E. Coli W 13352; [14]) [µg/mL]	MIC (E. Coli M 3; [15]) [µg/mL]	MIC (K. penumoniae S 48; [16]) [µg/mL]	MIC (E. Coli M 44; [17]) [µg/mL]	MIC (K penumoniae H 525; [18]) [µg/mL]	further results
O=C(NNC(=O)[C@H]1CC[C@@H]2CN1C(=O)N2OS(=O)(=O)O)[C@@H]1C[C@H](F)CN1 (mixture of isomers) [Example 11, trans-sulfuric acid mono-[2-(N′-[(2S,4S)-4-fluoro-pyrrolidin-2-carbonyl]-hydrazinocarbonyl)-7-oxo-1,6-diaza-bicyclo[3.2.1]oct-6-yl]ester]	1	2	2	4	> 32	> 32	2	4	16	2	> 32	2	2	2	8	2	1	2	–
NCCCC(=O)NNC(=O)[C@H]1CC[C@@H]2CN1C(=O)N2OS(=O)(=O)O (relative stereo) [Example 9, trans-sulfuric acid mono-[2-(N′-(4-amino-butanoyl)-hydrazinocarbonyl)-7-oxo-1,6-diaza-bicyclo[3.2.1]oct-6-yl]ester]	2 (≈ 5.47 µM)	1 (≈ 2.74 µM)	1 (≈ 2.74 µM)	4 (≈ 10.9 µM)	8 (≈ 21.9 µM)	8 (≈ 21.9 µM)	1 (≈ 2.74 µM)	1 (≈ 2.74 µM)	2 (≈ 5.47 µM)	0.5 (≈ 1.37 µM)	16 (≈ 43.8 µM)	1 (≈ 2.74 µM)	1 (≈ 2.74 µM)	1 (≈ 2.74 µM)	2 (≈ 5.47 µM)	1 (≈ 2.74 µM)	0.5 (≈ 1.37 µM)	0.5 (≈ 1.37 µM)	–
O=C(NNC(=O)[C@H]1CC[C@@H]2CN1C(=O)N2OS(=O)(=O)O)C1CCCNC1 (mixture of isomers) [Example 14, trans-sulfuric acid mono-[2-(N′—((RS)-piperidin-3-carbonyl)-hydrazinocarbonyl)-7-oxo-1,6-diaza-bicyclo[3.2.1]oct-6-yl]ester]	0.25 (≈ 0.639 µM)	0.5 (≈ 1.28 µM)	0.5 (≈ 1.28 µM)	2 (≈ 5.11 µM)	8 (≈ 20.4 µM)	16 (≈ 40.9 µM)	0.5 (≈ 1.28 µM)	0.5 (≈ 1.28 µM)	2 (≈ 5.11 µM)	0.25 (≈ 0.639 µM)	8 (≈ 20.4 µM)	0.5 (≈ 1.28 µM)	0.5 (≈ 1.28 µM)	0.5 (≈ 1.28 µM)	0.5 (≈ 1.28 µM)	4 (≈ 10.2 µM)	0.25 (≈ 0.639 µM)	0.25 (≈ 0.639 µM)	–
NCCC(=O)NNC(=O)[C@H]1CC[C@@H]2CN1C(=O)N2OS(=O)(=O)O (relative stereo) [Example 8, trans-sulfuric acid mono-[2-(N′-(3-amino-propioyl)-hydrazinocarbonyl)-7-oxo-1,6-diaza-bicyclo[3.2.1]oct-6-yl]ester]	1 (≈ 2.85 µM)	1 (≈ 2.85 µM)	1 (≈ 2.85 µM)	2 (≈ 5.69 µM)	8 (≈ 22.8 µM)	16 (≈ 45.5 µM)	1 (≈ 2.85 µM)	1 (≈ 2.85 µM)	2 (≈ 5.69 µM)	0.5 (≈ 1.42 µM)	8 (≈ 22.8 µM)	1 (≈ 2.85 µM)	1 (≈ 2.85 µM)	1 (≈ 2.85 µM)	4 (≈ 11.4 µM)	1 (≈ 2.85 µM)	0.5 (≈ 1.42 µM)	1 (≈ 2.85 µM)	–
O=C(O)c1cn(C2CC2)c2cc(N3CCNCC3)c(F)cc2c1=O [Ciprofloxacin, reference compound]	–	–	–	–	0.5 (≈ 1.51 µM)	–	–	32 (≈ 96.6 µM)	–	8 (≈ 24.1 µM)	–	–	–	–	–	–	–	32 (≈ 96.6 µM)	–
C[C@@H](O)[C@H]1C(=O)N2C(C(=O)O)=C(SCCN=CN)C[C@H]12 [Imipenem, reference compound]	–	0.5 (≈ 1.67 µM)	–	–	4 (≈ 13.4 µM)	> 32	0.5 (≈ 1.67 µM)	16 (≈ 53.4 µM)	4 (≈ 13.4 µM)	16 (≈ 53.4 µM)	> 32	0.25 (≈ 0.835 µM)	0.25 (≈ 0.835 µM)	0.25 (≈ 0.835 µM)	8 (≈ 26.7 µM)	16 (≈ 53.4 µM)	32 (≈ 107 µM)	16 (≈ 53.4 µM)	–
CN(C)c1cc(NC(=O)CNC(C)(C)C)c(O)c2c1C[C@H]1C[C@H]3[C@H](N(C)C)C(O)=C(C(N)=O)C(=O)[C@@]3(O)C(O)=C1C2=O [Tigecyclin, Tigecycline, reference compound]	–	–	–	–	–	–	–	–	–	–	–	–	–	–	–	–	–	–	MIC (E. coli M 50; Escherichia coli, M50): 0.5 µg/mL (≈ 0.854 µM); MIC (P. aeruginosa ATCC 27853): 16 µg/mL (≈ 27.3 µM); MIC (P. aeruginosa Ps 21): 16 µg/mL (≈ 27.3 µM); MIC (E. Coli B 89): 0.5 µg/mL (≈ 0.854 µM); MIC (K penumoniae H 521): 2 µg/mL (≈ 3.41 µM); MIC (E. Coli H 484): 0.25 µg/mL (≈ 0.427 µM); MIC (K penumoniae H 523): 8 µg/mL (≈ 13.7 µM); MIC (P. aeruginosa Ps 32): 16 µg/mL (≈ 27.3 µM); MIC (E. Coli W 13353): 1 µg/mL (≈ 1.71 µM); MIC (E. Coli W 13351): 1 µg/mL (≈ 1.71 µM); MIC (E. Coli W 13352): 0.25 µg/mL (≈ 0.427 µM); MIC (E. Coli M 3): 4 µg/mL (≈ 6.83 µM); MIC (K. penumoniae S 48): 1 µg/mL (≈ 1.71 µM); MIC (E. Coli M 44): 0.25 µg/mL (≈ 0.427 µM); MIC (K penumoniae H 525): 2 µg/mL (≈ 3.41 µM)
CC(C)(C#N)C(=O)NNC(=O)[C@H]1CC[C@@H]2CN1C(=O)N2OS(=O)(=O)[O-].[Na+] (relative stereo) [Example 51, Sodium salt of trans-sulfuric acid mono-[2-(N′-(cyano-dimethyl-acetyl)-hydrazinocarbonyl)-7-oxo-1,6-diaza-bicyclo[3.2.1]oct-6-yl]ester]	–	–	–	–	–	–	–	–	–	–	–	–	–	–	–	–	–	–	MIC (E. coli M 50; [19]): 16 µg/mL; MIC (E. coli NCTC 13351; [20]): 16 µg/mL; MIC (E. coli 7 MP): 32 µg/mL
C[C@H]1[C@H](NC(=O)/C(=N\OC(C)(C)C(=O)O)c2csc(N)n2)C(=O)N1S(=O)(=O)O [Aztreonam, reference compound]	–	> 32	–	–	2 (≈ 4.59 µM)	8 (≈ 18.4 µM)	> 32	> 32	> 32	> 32	8 (≈ 18.4 µM)	> 32	> 32	> 32	> 32	> 32	> 32	> 32	–
O=C(CC[C@@H]1CCCN1)NNC(=O)[C@H]1CC[C@@H]2CN1C(=O)N2OS(=O)(=O)O (relative stereo) [Example 31, trans-sulfuric acid mono-[2-(N′—[((S)-3-pyrrolidin-2-yl)-propionyl]-hydrazinocarbonyl)-7-oxo-1,6-diaza-bicyclo[3.2.1]oct-6-yl]ester]	–	–	–	–	–	–	–	–	–	–	–	–	–	–	–	–	–	–	MIC (E. coli M 50; [19]): 1 µg/mL (≈ 2.47 µM); MIC (E. coli NCTC 13351; [20]): 1 µg/mL (≈ 2.47 µM); MIC (E. coli 7 MP): 4 µg/mL (≈ 9.87 µM)
Nc1nc(C(=O)NNC(=O)[C@H]2CC[C@@H]3CN2C(=O)N3OS(=O)(=O)O)cs1 (relative stereo) [Example 42, trans-sulfuric acid mono-[2-(N′-(2-amino-thiazol-4-carbonyl)-hydrazinocarbonyl)-7-oxo-1,6-diaza-bicyclo[3.2.1]oct-6-yl]ester]	32 (≈ 78.7 µM)	–	32 (≈ 78.7 µM)	64 (≈ 157 µM)	–	–	–	–	–	–	–	–	–	–	–	–	–	–	–
O=C(NNC(=O)[C@H]1CC[C@@H]2CN1C(=O)N2OS(=O)(=O)O)[C@@H]1COCCN1 (mixture of isomers) [Example 39, trans-sulfuric acid mono-[2-(N′—((S)-morpholin-3-carbonyl)-hydrazinocarbonyl)-7-oxo-1,6-diaza-bicyclo[3.2.1]oct-6-yl]ester]	2	–	4	8	–	–	–	–	–	–	–	–	–	–	–	–	–	–	–
O=C(NNC(=O)[C@H]1CC[C@@H]2CN1C(=O)N2OS(=O)(=O)O)C1CCNC1 (mixture of isomers) [Example 32, trans-sulfuric acid mono-[2-(N′—[(RS)-pyrrolidin-3-carbonyl]-hydrazinocarbonyl)-7-oxo-1,6-diaza-bicyclo[3.2.1]oct-6-yl]ester]	0.5 (≈ 1.32 µM)	–	0.5 (≈ 1.32 µM)	1 (≈ 2.65 µM)	–	–	–	–	–	–	–	–	–	–	–	–	–	–	–
